Measurements reported in patent US8729064B2, “Heteroaromatic and aromatic piperazinyl azetidinyl amides as monoacylglycerol lipase inhibitors” (Janssen Pharmaceutica, NV, priority 2009, dated 2014).

Molecular target: T1, MGL activity in HeLa cell homogenate (Homo sapiens, UniProt Q99685)
T1 construct: HeLa cells were homogenated with a Polytron; endogenous in cells; host or cells: HeLa cell homogenate
T1 sequence (Q99685 1-303): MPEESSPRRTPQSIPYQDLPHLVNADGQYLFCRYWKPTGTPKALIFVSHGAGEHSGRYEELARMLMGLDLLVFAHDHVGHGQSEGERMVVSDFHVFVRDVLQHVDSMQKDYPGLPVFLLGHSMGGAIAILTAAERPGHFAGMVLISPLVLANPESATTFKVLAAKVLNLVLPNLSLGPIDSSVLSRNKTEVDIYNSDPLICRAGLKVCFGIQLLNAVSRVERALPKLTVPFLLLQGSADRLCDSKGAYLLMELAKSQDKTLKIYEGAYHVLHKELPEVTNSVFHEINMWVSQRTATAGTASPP
Experiment: 2-AG Accumulation Assay in HeLa cell homogenate
Format: biochemical
Conditions: accumulated 2-AG relative to MAFP 2-AG x100; for Example 4 % MAFP @ 10 μM: compound 10 μM; for Example 4 % MAFP @ 1 μM: compound 1 μM

| SMILES | Example 4 % MAFP @ 10 μM [% MAFP] | Example 4 % MAFP @ 1 μM [% MAFP] |
| --- | --- | --- |
| CC(C)(C)Cn1c(-c2ccccc2)cc2cc(C(=O)N3CC(N4CCN(c5ccc(F)cc5)CC4)C3)ccc21 [Compound 25, [1-(2,2-Dimethyl-propyl)-2-phenyl-1H-indol-5-yl]-{3-[4-(4-fluoro-phenyl)-piperazin-1-yl]-azetidin-1-yl}-methanone] | 65.8 |  |
| COc1ccccc1Cc1nc2cc(C(=O)N3CC(N4CCN(c5ccccn5)CC4)C3)ccc2o1 [Compound 15, [2-(2-Methoxy-benzyl)-benzooxazol-5-yl]-[3-(4-pyridin-2-yl-piperazin-1-yl)-azetidin-1-yl]-methanone] | 57.6 |  |
| CCCc1cc2cc(C(=O)N3CC(N4CCN(c5ccccn5)CC4)C3)ccc2n1CC1CCCCC1 [Compound 28, (1-Cyclohexylmethyl-2-propyl-1H-indol-5-yl)-[3-(4-pyridin-2-yl-piperazin-1-yl)-azetidin-1-yl]-methanone] | 77.0 |  |
| O=C(c1ccc2c(c1)cc(Cc1ccccc1)n2CC1CCCCC1)N1CC(N2CCN(c3ccccn3)CC2)C1 [Compound 18, (2-Benzyl-1-cyclohexylmethyl-1H-indol-5-yl)-[3-(4-pyridin-2-yl-piperazin-1-yl)-azetidin-1-yl]-methanone] | 134.6 |  |
| CC(C)(C)Cn1c(-c2ccccc2)cc2cc(C(=O)N3CC(N4CCN(c5ccccn5)CC4)C3)ccc21 [Compound 10, [1-(2,2-Dimethyl-propyl)-2-phenyl-1H-indol-5-yl]-[3-(4-pyridin-2-yl-piperazin-1-yl)-azetidin-1-yl]-methanone] | 160.1 |  |
| CC(C)(C)Cn1c(C(C)(C)C)cc2cc(C(=O)N3CC(N4CCN(c5ccccn5)CC4)C3)ccc21 [Compound 26, [2-tert-Butyl-1-(2,2-dimethyl-propyl)-1H-indol-5-yl]-[3-(4-pyridin-2-yl-piperazin-1-yl)-azetidin-1-yl]-methanone] | 37.0 |  |
| Cn1c(CC2CCCC2)cc2cc(C(=O)N3CC(N4CCN(c5ccccn5)CC4)C3)ccc21 [Compound 12, (2-Cyclopentylmethyl-1-methyl-1H-indol-5-yl)-[3-(4-pyridin-2-yl-piperazin-1-yl)-azetidin-1-yl]-methanone] | 142.0 |  |
| COc1ccccc1N1CCN(C2CN(C(=O)c3ccc4c(c3)cc(Cc3ccccc3)n4CC3CCCCC3)C2)CC1 [Compound 23, (2-Benzyl-1-cyclohexylmethyl-1H-indol-5-yl)-{3-[4-(2-methoxy-phenyl)-piperazin-1-yl]-azetidin-1-yl}-methanone] | 84.5 |  |
| CC(C)Cn1c(COc2ccccc2)cc2cc(C(=O)N3CC(N4CCN(c5ccccn5)CC4)C3)ccc21 [Compound 9, (1-Isobutyl-2-phenoxymethyl-1H-indol-5-yl)-[3-(4-pyridin-2-yl-piperazin-1-yl)-azetidin-1-yl]-methanone] | 67.8 |  |
| COc1ccccc1N1CCN(C2CN(C(=O)c3ccc4c(c3)cc(Cc3ccccc3)n4CC(C)C)C2)CC1 [Compound 21, (2-Benzyl-1-isobutyl-1H-indol-5-yl)-{3-[4-(2-methoxy-phenyl)-piperazin-1-yl]-azetidin-1-yl}-methanone] | 29.2 |  |
| COc1ccccc1N1CCN(C2CN(C(=O)c3ccc4c(c3)cc(COc3ccccc3)n4CC(C)C)C2)CC1 [Compound 17, (1-Isobutyl-2-phenoxymethyl-1H-indol-5-yl)-{3-[4-(2-methoxy-phenyl)-piperazin-1-yl]-azetidin-1-yl}-methanone] | 25.9 |  |
| O=C(c1ccc2[nH]c(CC3CCCCC3)cc2c1)N1CC(N2CCN(c3ccccn3)CC2)C1 [Compound 14, (2-Cyclohexylmethyl-1H-indol-5-yl)-[3-(4-pyridin-2-yl-piperazin-1-yl)-azetidin-1-yl]-methanone] | 53.7 |  |
| CC(C)Cc1cc2cc(C(=O)N3CC(N4CCN(c5ccccn5)CC4)C3)ccc2n1CC(C)C [Compound 8, (1,2-Diisobutyl-1H-indol-5-yl)-[3-(4-pyridin-2-yl-piperazin-1-yl)-azetidin-1-yl]-methanone] | 72.9 |  |
| O=C(c1ccc2nc(C3CCCCC3)oc2c1)N1CC(N2CCN(c3ccccn3)CC2)C1 [Compound 2, (2-Cyclohexyl-benzooxazol-6-yl)-[3-(4-pyridin-2-yl-piperazin-1-yl)-azetidin-1-yl]-methanone] | 87.6 | 39.7 |
| COCC(=O)c1c(-c2ccc(C)cc2)[nH]c2ccc(C(=O)N3CC(N4CCN(c5ccccn5)CC4)C3)cc12 [Compound 27, 2-Methoxy-1-{5-[3-(4-pyridin-2-yl-piperazin-1-yl)-azetidine-1-carbonyl]-2-p-tolyl-1H-indol-3-yl}-ethanone] | 76.3 |  |
| COc1ccccc1N1CCN(C2CN(C(=O)c3ccc4c(c3)cc(COc3ccccc3)n4CC(C)(C)C)C2)CC1 [Compound 22, [1-(2,2-Dimethyl-propyl)-2-phenoxymethyl-1H-indol-5-yl]-{3-[4-(2-methoxy-phenyl)-piperazin-1-yl]-azetidin-1-yl}-methanone] | 50.1 |  |
| COc1ccccc1N1CCN(C2CN(C(=O)c3ccc4c(c3)cc(-c3ccccc3)n4CC(C)(C)C)C2)CC1 [Compound 24, [1-(2,2-Dimethyl-propyl)-2-phenyl-1H-indol-5-yl]-{3-[4-(2-methoxy-phenyl)-piperazin-1-yl]-azetidin-1-yl}-methanone] | 58.8 |  |
| COc1cccc(-c2nc3cc(C(=O)N4CC(N5CCN(c6ccccn6)CC5)C4)ccc3o2)c1 [Compound 20, [2-(3-Methoxy-phenyl)-benzooxazol-5-yl]-[3-(4-pyridin-2-yl-piperazin-1-yl)-azetidin-1-yl]-methanone] | 86.9 |  |
| COc1ccc(-c2nc3cccc(C(=O)N4CC(N5CCN(c6ccccn6)CC5)C4)c3o2)cc1 [Compound 7, [2-(4-Methoxy-phenyl)-benzooxazol-7-yl]-[3-(4-pyridin-2-yl-piperazin-1-yl)-azetidin-1-yl]-methanone] | 79.5 |  |
| O=C(c1cccc2nc(-c3cccc(F)c3)oc12)N1CC(N2CCN(c3ccccn3)CC2)C1 [Compound 3, [2-(3-Fluoro-phenyl)-benzooxazol-7-yl]-[3-(4-pyridin-2-yl-piperazin-1-yl)-azetidin-1-yl]-methanone] | 82.9 | 45.7 |
| O=C(c1ccc2c(c1)cc(COc1ccccc1)n2CC1CCCCC1)N1CC(N2CCN(c3ccccn3)CC2)C1 [Compound 11, (1-Cyclohexylmethyl-2-phenoxymethyl-1H-indol-5-yl)-[3-(4-pyridin-2-yl-piperazin-1-yl)-azetidin-1-yl]-methanone] | 160.1 |  |
| CC(C)(C)c1nc2ccc(C(=O)N3CC(N4CCN(c5ccccn5)CC4)C3)cc2o1 [Compound 19, (2-tert-Butyl-benzooxazol-6-yl)-[3-(4-pyridin-2-yl-piperazin-1-yl)-azetidin-1-yl]-methanone] | 47.3 | 19.9 |
| O=C(c1cccc2nc(-c3ccc(F)cc3)oc12)N1CC(N2CCN(c3ccccn3)CC2)C1 [Compound 6, [2-(4-Fluoro-phenyl)-benzooxazol-7-yl]-[3-(4-pyridin-2-yl-piperazin-1-yl)-azetidin-1-yl]-methanone] | 68.8 | 30.6 |
| CC(C)Cn1c(-c2ccccc2)cc2cc(C(=O)N3CC(N4CCN(c5ccccn5)CC4)C3)ccc21 [Compound 13, (1-Isobutyl-2-phenyl-1H-indol-5-yl)-[3-(4-pyridin-2-yl-piperazin-1-yl)-azetidin-1-yl]-methanone] | 93.5 |  |
